Results published in PMC5607459, “Discovery of a Potent Inhibitor Class with High Selectivity toward Clostridial Collagenases” (Journal of the American Chemical Society, 2017).
Entries after “also recorded” stand apart in the source; their conditions may differ. Read-outs that look alike come from different tables or passages of the source. Non-standard residues stand in square brackets, D forms with d. Residues, ends and D or L forms follow the SMILES beside them. *: point of attachment. Dnp = O=[N+]([O-])c1ccc(*)c([N+](=O)[O-])c1; Mca = COc1ccc2c(CC(=O)*)cc(=O)oc2c1; Dap = NC[C@H](N)C(=O)O

Legend:
ColH-PD [1] = target: T1, ColH-PD (Hathewaya histolytica, UniProt Q46085); assay: biochemical
ColQ1-CU = ColQ1-CU (Bacillus cereus, UniProt B9J3S4); assay: biochemical; parameters: species or system Bacillus cereus strain Q1; settings: for remaining activity at 100 µM: read-out: residual activity of ColQ1
[2] = test system: MMP-1, -2, -3, -7, -8, and -14; assay: Human MMP inhibition assay, statements on the whole panel; assay type: biochemical; settings: for inhibition of the tested MMPs: tested at 100 µM
ColT-PD = ColT-PD (Clostridium tetani, UniProt Q899Y1); assay: biochemical; parameters: species or system C. tetani; settings: for remaining activity at 100 µM: read-out: residual activity of ColT
[3] = target: T2, catalytic domain of MMP-2 (Homo sapiens, UniProt P08253); assay: Human MMP inhibition assay, MMP-2; assay type: biochemical; settings: 100 μM compound
T2 construct: The catalytic domains of MMP-1, -2, -3, -7, -8 and -14; purchased AnaSpec (Fremont, CA, USA)

ColG-CU = ColG-CU (Hathewaya histolytica, UniProt Q9X721); assay: biochemical; parameters: species or system C. histolyticum; settings: for remaining activity at 100 µM: read-out: residual activity of ColG
ColH-PD [4] = target: T1, ColH-PD
ColH-PD [5] = target: T1, ColH-PD; assay: biochemical; assay type: binding, Clostridium histolyticum
physchem = settings: buffer, pH 7.5
HEP G2 cells [6] = settings: human
LasB = assay type: biochemical, P. aeruginosa
[7] = 10 mM Hepes pH 7.4 (10% methanol) at 22.5°C, experimental time frame
ColH-PD [8] = target: T1, ColH-PD; remark: listed apart in the source
[9] = target: catalytic domain of MMP-7 (Homo sapiens, UniProt P09237); assay: biochemical
HEP G2 cells [10] = assay: Cytotoxicity assay; settings: 48 h
[11] = target: amine-coupled peptidase domain of ColH (ColH-PD) (Hathewaya histolytica, UniProt Q46085)
Chain of amine-coupled peptidase domain of ColH (ColH-PD) (Q46085 331-721 limits assumed): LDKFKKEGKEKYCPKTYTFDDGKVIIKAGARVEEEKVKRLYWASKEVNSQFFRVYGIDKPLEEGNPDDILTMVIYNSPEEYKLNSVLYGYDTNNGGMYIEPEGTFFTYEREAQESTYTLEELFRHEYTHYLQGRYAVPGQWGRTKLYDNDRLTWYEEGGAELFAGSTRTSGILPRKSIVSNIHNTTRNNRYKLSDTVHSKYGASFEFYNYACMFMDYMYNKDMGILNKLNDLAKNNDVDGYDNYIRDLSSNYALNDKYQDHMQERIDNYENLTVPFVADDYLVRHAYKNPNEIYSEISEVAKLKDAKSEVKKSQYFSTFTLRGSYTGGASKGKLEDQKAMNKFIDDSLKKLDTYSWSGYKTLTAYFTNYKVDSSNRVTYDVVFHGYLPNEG

Chain of ColQ1-CU (B9J3S4 94-765 limits assumed): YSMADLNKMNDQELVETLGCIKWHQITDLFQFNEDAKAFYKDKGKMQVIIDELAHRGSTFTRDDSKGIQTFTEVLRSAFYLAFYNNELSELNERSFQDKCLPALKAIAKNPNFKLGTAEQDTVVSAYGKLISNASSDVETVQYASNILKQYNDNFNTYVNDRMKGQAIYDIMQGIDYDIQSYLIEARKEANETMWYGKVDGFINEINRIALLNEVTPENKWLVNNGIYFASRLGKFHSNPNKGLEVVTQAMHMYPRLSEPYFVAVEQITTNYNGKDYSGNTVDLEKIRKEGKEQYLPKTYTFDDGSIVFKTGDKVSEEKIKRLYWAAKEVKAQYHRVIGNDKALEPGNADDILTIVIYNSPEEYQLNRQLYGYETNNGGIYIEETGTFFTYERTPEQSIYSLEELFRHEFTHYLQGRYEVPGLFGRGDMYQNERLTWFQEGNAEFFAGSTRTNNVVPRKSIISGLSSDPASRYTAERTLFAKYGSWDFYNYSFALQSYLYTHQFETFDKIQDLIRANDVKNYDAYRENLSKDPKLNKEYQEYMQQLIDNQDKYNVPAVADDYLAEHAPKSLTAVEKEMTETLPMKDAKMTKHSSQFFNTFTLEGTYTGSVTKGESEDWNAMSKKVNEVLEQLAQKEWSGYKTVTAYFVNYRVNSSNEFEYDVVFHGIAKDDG
Chain of ColT-PD (Q899Y1 340-731 limits assumed): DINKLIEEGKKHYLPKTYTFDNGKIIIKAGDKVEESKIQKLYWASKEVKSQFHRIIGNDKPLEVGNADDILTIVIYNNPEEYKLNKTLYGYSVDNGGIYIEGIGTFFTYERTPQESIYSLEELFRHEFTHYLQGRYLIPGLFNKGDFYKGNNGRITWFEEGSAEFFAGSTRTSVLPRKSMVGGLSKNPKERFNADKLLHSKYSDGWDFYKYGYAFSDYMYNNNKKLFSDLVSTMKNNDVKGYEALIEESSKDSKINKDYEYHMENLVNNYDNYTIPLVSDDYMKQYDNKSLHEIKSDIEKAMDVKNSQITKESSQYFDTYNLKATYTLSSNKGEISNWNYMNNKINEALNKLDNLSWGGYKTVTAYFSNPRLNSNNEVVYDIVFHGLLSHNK
T1 sequence (Q46085 331-721 limits assumed): as the sequence (Q46085 331-721 limits assumed) above
Chain of ColG-CU (Q9X721 111-786): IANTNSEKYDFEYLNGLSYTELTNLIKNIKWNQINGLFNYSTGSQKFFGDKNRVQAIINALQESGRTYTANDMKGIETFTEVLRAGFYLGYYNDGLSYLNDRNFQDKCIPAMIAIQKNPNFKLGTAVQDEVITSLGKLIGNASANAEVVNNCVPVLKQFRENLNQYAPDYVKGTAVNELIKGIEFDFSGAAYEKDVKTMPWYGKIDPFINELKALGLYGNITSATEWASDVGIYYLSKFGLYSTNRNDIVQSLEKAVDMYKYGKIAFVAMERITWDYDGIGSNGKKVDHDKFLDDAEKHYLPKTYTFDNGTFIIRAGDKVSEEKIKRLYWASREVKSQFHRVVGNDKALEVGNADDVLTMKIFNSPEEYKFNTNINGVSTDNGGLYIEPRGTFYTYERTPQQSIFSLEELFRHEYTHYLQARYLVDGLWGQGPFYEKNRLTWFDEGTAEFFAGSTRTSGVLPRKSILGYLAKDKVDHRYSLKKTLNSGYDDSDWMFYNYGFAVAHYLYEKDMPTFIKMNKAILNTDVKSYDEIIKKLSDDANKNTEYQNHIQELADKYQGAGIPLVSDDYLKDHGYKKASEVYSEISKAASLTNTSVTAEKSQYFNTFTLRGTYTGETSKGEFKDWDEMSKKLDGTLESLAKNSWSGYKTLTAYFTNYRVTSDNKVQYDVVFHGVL
T2 sequence (P08253 110-465 limits assumed): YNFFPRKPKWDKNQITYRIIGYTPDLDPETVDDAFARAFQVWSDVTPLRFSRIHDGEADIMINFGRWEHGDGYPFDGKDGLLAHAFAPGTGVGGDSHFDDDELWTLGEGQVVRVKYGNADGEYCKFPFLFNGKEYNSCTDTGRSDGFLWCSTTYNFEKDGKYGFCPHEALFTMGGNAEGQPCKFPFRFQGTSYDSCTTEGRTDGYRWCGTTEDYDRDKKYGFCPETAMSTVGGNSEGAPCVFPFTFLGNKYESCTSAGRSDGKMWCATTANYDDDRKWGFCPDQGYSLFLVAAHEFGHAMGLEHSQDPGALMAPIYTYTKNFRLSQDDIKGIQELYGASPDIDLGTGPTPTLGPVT
Chain of catalytic domain of MMP-7 (P09237 95-267): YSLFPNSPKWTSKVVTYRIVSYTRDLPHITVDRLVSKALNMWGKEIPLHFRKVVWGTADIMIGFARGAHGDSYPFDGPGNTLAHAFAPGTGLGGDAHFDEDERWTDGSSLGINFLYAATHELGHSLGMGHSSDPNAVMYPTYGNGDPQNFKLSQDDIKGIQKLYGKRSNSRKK

`NC(=O)SCC(=O)Nc1ccccc1` [Compound 1] gave an IC50 (ColH-PD [1]) of 25000 ± 6000 nM.

`Cc1ccc(NC(=O)CSC(N)=O)cc1C` [Compound 2] gave an IC50 (ColH-PD [1]) of 1900 ± 300 nM and an inhibition at 40 µM (ColH-PD [1]; read-out: inhibition of ColH-PD) of 82 ± 3%.

In the case of `CC(=O)c1ccc(NC(=O)CSC(N)=O)cc1` [Compound 3], the remaining activity at 100 µM (ColQ1-CU) is reported as at most 5%, the “selectivity for ColH over MMPs” value [2] is reported as “more than 1000 fold” and the “inhibition of the tested MMPs” value [2] is reported as “no or negligible inhibition”. For the same compound, the remaining activity at 100 µM (ColH-PD [1]; read-out: residual activity of ColH-PD) was under 10%, the remaining activity at 100 µM (ColT-PD) was at most 5% and the inhibition at 100 µM [3] was 25%. The remaining activity at 100 µM (ColG-CU) was at most 5%.

With `COC(=O)c1ccc(NC(=O)CSC(N)=O)cc1` [Compound 4] the IC50 (ColH-PD [1]) was 44 ± 7 nM.

For `COc1ccc(NC(=O)CSC(N)=O)cc1` [Compound 5], the IC50 (ColH-PD [1]) was 71 ± 9 nM.

With `Cc1ccc(NC(=O)CSC(N)=O)cc1` [Compound 6] the “decreased IC50 compared to compound 2” value (ColH-PD [4]) was 16 fold and the IC50 (ColH-PD [1]) was 120 ± 10 nM.

In the case of `NC(=O)SCC(=O)Nc1ccc(Cl)cc1` [Compound 7], the remaining activity at 100 µM (ColQ1-CU) is reported as at most 5%, the Kd (ColH-PD [5]) is reported as 309 ± 45 nM and the “N (stoichiometry)” value (ColH-PD [5]) is reported as 0.54 ± 0.05. The ΔG (ColH-PD [5]) was “–8.9 ± 0.1 kcal mol^–1”, the ΔH (ColH-PD [5]) was “–12.7 ± 1.2 kcal mol^–1” and the “–TΔS” value (ColH-PD [5]) was 3.8 ± 1.3 kcal mol^–1. The “decrease in IC50 compared to meta-chloro-substituted counterpart 9” value (ColH-PD [4]) was 100 fold, the “selectivity for ColH over MMPs” value [2] was “more than 1000 fold” and the “inhibition of the tested MMPs” value [2] was “no or negligible inhibition”. For the same compound, the IC50 (ColH-PD [1]) was 190 ± 20 nM, the remaining activity at 100 µM (ColT-PD) was at most 5% and the remaining activity at 100 µM (ColG-CU) was at most 5%. For the same compound, the half-life (physchem) was 26.8 ± 1.4 min.

Work on `CCOc1ccc(NC(=O)CSC(N)=O)cc1` [Compound 8] yielded an IC50 (ColH-PD [1]) of 190 ± 30 nM.

Work on `NC(=O)SCC(=O)Nc1cccc(Cl)c1` [Compound 9] yielded an IC50 (ColH-PD [1]) of 19000 ± 3000 nM.

In the case of `NC(=O)SCC(=O)Nc1cccc(F)c1` [Compound 10], the IC50 (ColH-PD [1]) is reported as 23000 ± 3000 nM.

With `NC(=O)SCC(=O)Nc1ccccc1Cl` [Compound 12] the IC50 (ColH-PD [1]) was 31000 ± 7000 nM and the half-life (physchem) was 20.6 ± 0.9 min.

In the case of `CC(=O)c1ccc(NC(=O)CS)cc1` [Compound 13], the “selectivity against MMPs” value [2] is reported as “similarly high selectivity against MMPs”, the “reduction of viability (%)” value (HEP G2 cells [6]) is reported as 17 ± 12% and the “lower activity toward LasB compared to ColH” value (LasB) is reported as “more than 1000 fold”.

With `O=C(CS)Nc1ccc(Cl)cc1` [Compound 14] the Kd (ColH-PD [5]) was 360 ± 38 nM, the “N (stoichiometry)” value (ColH-PD [5]) was 0.48 ± 0.03 and the ΔG (ColH-PD [5]) was “–8.8 ± 0.1 kcal mol^–1”. For the same compound, the ΔH (ColH-PD [5]) was “–15.4 ± 0.3 kcal mol^–1”, the “–TΔS” value (ColH-PD [5]) was 6.6 ± 0.4 kcal mol^–1 and the “selectivity against MMPs” value [2] was “similarly high selectivity against MMPs”. For the same compound, the IC50 (ColH-PD [1]) was 210 ± 10 nM and the “reduction of viability (%)” value (HEP G2 cells [6]) was 28 ± 12%.

For `O=C(CS)Nc1ccccc1Cl` [Compound 15], the IC50 (ColH-PD [1]) was 40000 ± 9000 nM.

In the case of `NC(=O)CCC(=O)Nc1ccccc1` [Compound 16], the “inhibitory activity toward ColH-PD” value (ColH-PD [4]) is reported as “devoid of any activity; also recorded: no inhibition”.

In the case of `CCOc1ccc(NC(=O)CSC(=S)N(CC)CC)cc1` [Compound 17], the “Inhibition at 100 μM (%)” value (ColH-PD [4]) is reported as “no inhibition”.

For `CCN(CC)C(=S)SCC(=O)Nc1ccc(Br)cc1` [Compound 18], the “Inhibition at 100 μM (%)” value (ColH-PD [4]) was “no inhibition”.

In the case of `CCN(CC)C(=S)SCC(=O)Nc1ccc(C(C)C)cc1` [Compound 19], the “Inhibition at 100 μM (%)” value (ColH-PD [4]) is reported as “no inhibition”.

For `CCN(CC)C(=S)SCC(=O)Nc1ccc(F)cc1` [Compound 20], the “Inhibition at 100 μM (%)” value (ColH-PD [4]) was “no inhibition”.

With `CCN(CC)C(=S)SCC(=O)Nc1ccc(C(C)=O)cc1` [Compound 21] the “hydrolysis to the corresponding free thiol 13” value [7] was “no hydrolysis” and the inhibition at 100 µM (ColH-PD [1]; read-out: Inhibition at 100 μM (%)) was 12 ± 3%.

`COc1ccc2c(CC(=O)N[C@@H](C)C(=O)NCC(=O)N3CCC[C@H]3C(=O)N3CCC[C@H]3C(=O)NCC(=O)N3CCC[C@H]3C(=O)N[C@@H](CNc3ccc([N+](=O)[O-])cc3[N+](=O)[O-])C(=O)NCC(=O)N[C@@H](CCCNC(=N)N)C(N)=O)cc(=O)oc2c1` [Mca-Ala-Gly-Pro-Pro-Gly-Pro-Dpa-Gly-Arg-NH2] (Mca-AGPPGP[Dap](Dnp)GR-NH2) showed a Km (ColH-PD [8]) of 62 ± 8 µM.

For `CNC(=O)[C@H](Cc1ccccc1)NC(=O)[C@H](CC(C)C)[C@H](CSc1cccs1)C(=O)NO` [batimastat, reference compound], the “inhibition of ColQ1-CU” value (ColQ1-CU) was “inhibited”, the “inhibition of ColH-PD” value (ColH-PD [4]) was “inhibited” and the IC50 [9] was 7 ± 0.2 nM. The IC50 ([2]; MMP-1, -2, -3, -7, -8, -14, read-out: IC50 values for all of these MMPs) was under 10 nM, the “inhibition of ColT-PD” value (ColT-PD) was “inhibited” and the “inhibition of ColG-CU” value (ColG-CU) was “inhibited”. The “reduction of viability (%)” value (HEP G2 cells [6]; 48 h, 100 μM) was 13 ± 7%.

In the case of `COc1cccc2c1C(=O)c1c(O)c3c(c(O)c1C2=O)C[C@@](O)(C(=O)CO)C[C@@H]3O[C@H]1C[C@H](N)[C@H](O)[C@H](C)O1` [doxorubicin], the “reduction of viability (%)” value (HEP G2 cells [10]; 1 μM) is reported as 50 ± 5%.

With `CO[C@H]1/C=C/O[C@@]2(C)Oc3c(C)c(O)c4c(O)c(c(/C=N/N5CCN(C)CC5)c(O)c4c3C2=O)NC(=O)/C(C)=C\C=C\[C@H](C)[C@H](O)[C@@H](C)[C@@H](O)[C@@H](C)[C@H](OC(C)=O)[C@@H]1C` [rifampicin] the “reduction of viability (%)” value (HEP G2 cells [10]; 100 μM) was 29 ± 5%.

For “N-(3-[2-furyl]acryloyl)-L-leucyl-glycyl-L-prolyl-L-alanine [FALGPA]”, the “MW-normalized SPR response” value [11] was 35 μ-refractive index units.

For “isoamylphosphonyl-Gly-Pro-Ala [reference compound]”, the “inhibition of ColH-PD” value (ColH-PD [4]; 40 µM) was 81 ± 1%.
